The values that follow come from patent US20230391739A1, “ARYL DERIVATIVES FOR TREATING TRPM3 MEDIATED DISORDERS” (Katholieke Universiteit Leuven, priority 2020, published 2023).

SMILES strings stand for the structures. pIC50: −log10 of the molar value.

The experiment concerns the target T1, mouse TRPM3α2 (mTRPM3) ion channel (Mus musculus, UniProt J9SQF3).
T1 construct: expressed in transfected cells; host or cells: flip-in HEK293
Nature of the experiment: TRPM3 ion channel driven Ca2+ uptake, Fluo-4 AM assay, PS-stimulated (mTRPM3). The experiment is classed as cell-based. The conditions noted are these: TRPM3 overexpressing flip-in HEK293 cells stimulated with Pregnenolone sulfate (PS) 50 μM, activity ranges A, B, C. In a few lines: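 Ca²⁺ influx through mouse TRPM3α2, opened by 50 μM pregnenolone sulfate, was tracked with Fluo-4 AM in stably transfected HEK293 cells read directly after seeding onto pre-dispensed compound.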

T1 sequence (J9SQF3 1-1709 isoform J9SQF3-12): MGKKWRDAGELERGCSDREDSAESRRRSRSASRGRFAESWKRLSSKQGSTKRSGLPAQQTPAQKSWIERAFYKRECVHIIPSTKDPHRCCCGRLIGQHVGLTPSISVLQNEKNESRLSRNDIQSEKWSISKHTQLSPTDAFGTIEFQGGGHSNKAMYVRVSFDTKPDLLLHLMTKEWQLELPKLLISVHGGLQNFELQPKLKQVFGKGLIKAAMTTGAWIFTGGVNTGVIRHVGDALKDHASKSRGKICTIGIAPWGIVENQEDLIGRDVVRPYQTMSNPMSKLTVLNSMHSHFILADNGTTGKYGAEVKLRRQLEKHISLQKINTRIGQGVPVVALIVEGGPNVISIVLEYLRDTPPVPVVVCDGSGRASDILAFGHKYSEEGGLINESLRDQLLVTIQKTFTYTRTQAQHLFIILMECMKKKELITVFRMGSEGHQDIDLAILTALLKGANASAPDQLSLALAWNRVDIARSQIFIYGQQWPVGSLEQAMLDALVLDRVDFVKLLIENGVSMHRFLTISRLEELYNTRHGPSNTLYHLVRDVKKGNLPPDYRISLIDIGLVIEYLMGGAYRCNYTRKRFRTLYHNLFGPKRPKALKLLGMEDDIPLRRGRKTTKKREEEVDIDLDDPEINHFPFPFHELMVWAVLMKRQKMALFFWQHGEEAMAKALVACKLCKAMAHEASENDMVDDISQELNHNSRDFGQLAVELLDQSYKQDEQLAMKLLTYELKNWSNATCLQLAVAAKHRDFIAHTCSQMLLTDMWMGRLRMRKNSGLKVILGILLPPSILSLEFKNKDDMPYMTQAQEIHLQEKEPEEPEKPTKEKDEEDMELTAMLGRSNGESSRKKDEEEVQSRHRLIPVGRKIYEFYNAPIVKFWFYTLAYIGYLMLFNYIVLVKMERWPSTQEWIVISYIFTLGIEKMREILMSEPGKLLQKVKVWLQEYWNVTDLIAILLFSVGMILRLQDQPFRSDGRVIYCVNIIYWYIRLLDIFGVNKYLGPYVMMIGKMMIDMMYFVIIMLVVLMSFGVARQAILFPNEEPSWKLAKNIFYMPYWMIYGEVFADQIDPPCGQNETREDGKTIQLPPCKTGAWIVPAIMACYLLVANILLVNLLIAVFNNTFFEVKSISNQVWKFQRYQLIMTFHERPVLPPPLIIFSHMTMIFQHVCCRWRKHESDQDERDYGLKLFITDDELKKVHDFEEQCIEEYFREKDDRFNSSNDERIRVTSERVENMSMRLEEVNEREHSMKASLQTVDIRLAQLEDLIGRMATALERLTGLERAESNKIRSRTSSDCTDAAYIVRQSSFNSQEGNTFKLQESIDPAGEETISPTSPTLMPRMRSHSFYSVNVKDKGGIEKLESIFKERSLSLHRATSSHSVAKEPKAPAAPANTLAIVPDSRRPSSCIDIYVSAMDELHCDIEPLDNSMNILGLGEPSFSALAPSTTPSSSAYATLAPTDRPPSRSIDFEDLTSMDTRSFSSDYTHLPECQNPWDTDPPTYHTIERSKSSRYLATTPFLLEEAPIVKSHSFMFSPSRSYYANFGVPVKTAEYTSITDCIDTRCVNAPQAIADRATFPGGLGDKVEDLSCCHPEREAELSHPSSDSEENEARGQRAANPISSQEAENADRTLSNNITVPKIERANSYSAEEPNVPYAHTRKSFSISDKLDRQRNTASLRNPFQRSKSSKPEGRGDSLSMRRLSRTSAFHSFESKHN

`Cc1cc2oc(C)c(C(=O)NC3CNCC3(F)F)c2cc1OCc1ccccc1` (single isomer, unassigned) [Cpd 303-En 1, 5-(benzyloxy)-N-(4,4-difluoropyrrolidin-3-yl)-2,6-dimethylbenzofuran-3-carboxamide]: the pIC50 – broadly, −log10 of the IC50, conventionally taken in molar units – was 4.70 to 6.00.

In turn, `Cc1oc2ccc(OCc3ccccc3)cc2c1C(=O)N[C@H]1C[C@H]2CN(C)CCN2C1` [Cpd 205, 5-(benzyloxy)-2-methyl-N-((7S,8aS)-2-methyloctahydropyrrolo[1,2-a]pyrazin-7-yl)benzofuran-3-carboxamide] showed a pIC50 of 4.70 to 6.00. With `Cc1oc2c(C#N)cc(OCc3ccccc3)cc2c1C(=O)NC1CNCC1(F)F` (single isomer, unassigned) [Cpd 305-En 1, 5-(benzyloxy)-7-cyano-N-(4,4-difluoropyrrolidin-3-yl)-2-methylbenzofuran-3-carboxamide], the pIC50 was under 4.70. Next, `COc1cccc(COc2ccc3oc(C)c(C(=O)O)c3c2)c1` [Cpd 012, 5-((3-methoxybenzyl)oxy)-2-methylbenzofuran-3-carboxylic acid]: over 6.00.

For `Cc1oc2ccc(OCc3ccccc3)cc2c1C(=O)N[C@H]1C[C@@H](O)C1` [Cpd 054, 5-(benzyloxy)-N-(cis-3-hydroxycyclobutyl)-2-methylbenzofuran-3-carboxamide], the pIC50 was over 6.00. Next, `Cc1oc2ccc(OC(C)c3ccccc3)cc2c1C(=O)O` (centres unmarked) [Cpd 004, 2-methyl-5-(1-phenylethoxy)benzofuran-3-carboxylic acid]: 4.70 to 6.00; `Cc1oc2ccc(OCc3ccccc3)cc2c1C(N)=O` [Cpd 035, 5-(benzyloxy)-2-methylbenzofuran-3-carboxamide]: over 6.00. To `Cc1oc2ccc(OC(CO)c3ccccc3F)cc2c1C(=O)N[C@@H](CO)C(N)=O` (single isomer, unassigned) [Cpd 335-Dia 2] belongs over 6.00. Consider `Cc1oc2ccc(OCc3ccccc3F)cc2c1C(=O)N[C@@H]1COC[C@H]1O` (single isomer, unassigned) [Cpd 330-En 1], for which the pIC50 is over 6.00. Next, `Cc1oc2ccc(OCc3cccc(F)c3F)cc2c1C(=O)N[C@H]1CCN(C(=O)OC(C)(C)C)C1` [Cpd 256, tert-butyl (S)-3-(5-((2,3-difluorobenzyl)oxy)-2-methylbenzofuran-3-carboxamido)pyrrolidine-1-carboxylate]: 4.70 to 6.00; `Cc1oc2ccc(OCc3ccccc3)cc2c1C(=O)NC1CCS(=O)(=O)CC1` [Cpd 198, 5-(benzyloxy)-N-(1,1-dioxidotetrahydro-2H-thiopyran-4-yl)-2-methylbenzofuran-3-carboxamide]: over 6.00. For `Cc1oc2ccc(OCc3ccccc3)cc2c1C(=O)NC1CC(C)(C)NC(C)(C)C1` [Cpd 209, 5-(benzyloxy)-2-methyl-N-(2,2,6,6-tetramethylpiperidin-4-yl)benzofuran-3-carboxamide], the pIC50 is 4.70 to 6.00.

`Cc1oc2ccc(OCc3cccc(F)c3F)cc2c1C(=O)NC1CCNCC1(F)F` (centres unmarked) [Cpd 227, 5-((2,3-difluorobenzyl)oxy)-N-(3,3-difluoropiperidin-4-yl)-2-methylbenzofuran-3-carboxamide] gave a pIC50 of over 6.00.

`Cc1oc2ccc(OCc3ccccc3)cc2c1C(=O)NC1CCC(N(C)C)CC1` (centres unmarked) [Cpd 186, 5-(benzyloxy)-N-(4-(dimethylamino)cyclohexyl)-2-methylbenzofuran-3-carboxamide] had a pIC50 of over 6.00.

As to `Cc1oc2ccc(OCc3ccccc3)cc2c1C(=O)NC1CCC(O)CC1` (centres unmarked) [Cpd 123, 5-(benzyloxy)-N-(4-hydroxycyclohexyl)-2-methylbenzofuran-3-carboxamide], the pIC50 is over 6.00. The compound `CCNC(=O)c1c(C)oc2ccc(OCc3ccccc3)cc12` [Cpd 038, 5-(benzyloxy)-N-ethyl-2-methylbenzofuran-3-carboxamide] showed a pIC50 of 4.70 to 6.00. To `Cc1oc2ccc(OCc3ccccc3)cc2c1C(=O)NCC1CCOCC1` [Cpd 122, 5-(benzyloxy)-2-methyl-N-((tetrahydro-2H-pyran-4-yl)methyl)benzofuran-3-carboxamide] belongs 4.70 to 6.00; to `Cc1oc2ccc(OCc3ccccc3)cc2c1C(=O)NCC1(N(C)C)CCCC1` [Cpd 187, 5-(benzyloxy)-N-((1-(dimethylamino)cyclopentyl)methyl)-2-methylbenzofuran-3-carboxamide], over 6.00; to `Cc1oc2ccc(OCc3ccccc3)cc2c1C(=O)NC1CNCC1(F)F` (centres unmarked) [Cpd 137, 5-(benzyloxy)-N-(4,4-difluoropyrrolidin-3-yl)-2-methylbenzofuran-3-carboxamide], over 6.00.

For the compound `Cc1oc2ccc(OCc3cccc(Cl)c3)cc2c1C(=O)O` [Cpd 017, 5-((3-chlorobenzyl)oxy)-2-methylbenzofuran-3-carboxylic acid], the pIC50 was 4.70 to 6.00. To `Cc1oc2ccc(OCc3ccc(C(F)(F)F)cc3)cc2c1C(=O)N[C@H]1CCNC1` [Cpd 202, (S)-2-methyl-N-(pyrrolidin-3-yl)-5-((4-(trifluoromethyl)benzyl)oxy)benzofuran-3-carboxamide] belongs 4.70 to 6.00. To `Cc1oc2ccc(OCc3ccccc3)cc2c1C(=O)N[C@H]1CC[C@H](O)CC1` [Cpd 124, 5-(benzyloxy)-N-(trans-4-hydroxycyclohexyl)-2-methylbenzofuran-3-carboxamide] belongs over 6.00; to `CCc1oc2ccc(OCc3cccc(F)c3)cc2c1C(=O)O` [Cpd 015, 2-ethyl-5-((3-fluorobenzyl)oxy)benzofuran-3-carboxylic acid], 4.70 to 6.00; to `Cc1oc2ccc(OCc3ccccc3)cc2c1C(=O)NC1CCNC1=O` (centres unmarked) [Cpd 071, 5-(benzyloxy)-2-methyl-N-(2-oxopyrrolidin-3-yl)benzofuran-3-carboxamide], over 6.00.

Compound `Cc1oc2ccc(OCc3ccccc3)cc2c1C(=O)N[C@H]1CCNC1` [Cpd 049, (S)-5-(benzyloxy)-2-methyl-N-(pyrrolidin-3-yl)benzofuran-3-carboxamide] had a pIC50 of over 6.00. As for `Cc1oc2ccc(OCc3ccccc3)cc2c1C(=O)NC1CCN(Cc2ccccc2)CC1` [Cpd 241, 5-(benzyloxy)-N-(1-benzylpiperidin-4-yl)-2-methylbenzofuran-3-carboxamide], the pIC50 is 4.70 to 6.00. To `Cc1oc2ccc(OCc3ccccc3)cc2c1C(=O)NC1(CO)COC1` [Cpd 092, 5-(benzyloxy)-N-(3-(hydroxymethyl)oxetan-3-yl)-2-methylbenzofuran-3-carboxamide] belongs over 6.00; to `Cc1oc2cc(F)c(OCc3ccccc3)cc2c1C(=O)NC1CNCC1(F)F` (single isomer, unassigned) [Cpd 302-En 2, 5-(benzyloxy)-N-(4,4-difluoropyrrolidin-3-yl)-6-fluoro-2-methylbenzofuran-3-carboxamide], over 6.00; to `Cc1oc2ccc(OCc3ccccc3)cc2c1C(=O)N1CCCC(C(=O)NCC(C)C)C1` (centres unmarked) [Cpd 236, 1-(5-(benzyloxy)-2-methylbenzofuran-3-carbonyl)-N-isobutylpiperidine-3-carboxamide], under 4.70.

The compound `Cc1ccc(COc2ccc3oc(C)c(C(=O)O)c3c2)cc1` [Cpd 006, 2-methyl-5-((4-methylbenzyl)oxy)benzofuran-3-carboxylic acid] had a pIC50 of 4.70 to 6.00. The compound `Cc1oc2ccc(OCc3ccccc3)cc2c1C(=O)NC1CCC(=O)NC1` (centres unmarked) [Cpd 111, 5-(benzyloxy)-2-methyl-N-(6-oxopiperidin-3-yl)benzofuran-3-carboxamide] gave a pIC50 of 4.70 to 6.00. Next, `CCN1CCC[C@@H]1CNC(=O)c1c(C)oc2ccc(OCc3ccccc3)cc12` [Cpd 153, (R)-5-(benzyloxy)-N-((l-ethylpyrrolidin-2-yl)methyl)-2-methylbenzofuran-3-carboxamide]: over 6.00; `Cc1oc2ccc(OCc3ccccc3)cc2c1C(=O)NCCCN(C)C` [Cpd 091, 5-(benzyloxy)-N-(3-(dimethylamino)propyl)-2-methylbenzofuran-3-carboxamide]: 4.70 to 6.00; `Cc1oc2ccc(OCc3cccc(C(F)(F)F)c3)cc2c1C(=O)O` [Cpd 025, 2-methyl-5-((3-(trifluoromethyl)benzyl)oxy)benzofuran-3-carboxylic acid]: 4.70 to 6.00. To `Cc1oc2ccc(OC(CCN(C)C)c3ccccc3)cc2c1C(=O)NC1CCNC1=O` (centres unmarked) [Cpd 224, 5-(3-(dimethylamino)-1-phenylpropoxy)-2-methyl-N-(2-oxopyrrolidin-3-yl)benzofuran-3-carboxamide] belongs under 4.70; to `Cc1oc2ccc(OCc3ccccc3)cc2c1C(=O)NS(=O)(=O)C(F)(F)F` [Cpd 195, 5-(benzyloxy)-2-methyl-N-((trifluoromethyl)sulfonyl)benzofuran-3-carboxamide], under 4.70.

As for `Cc1oc2ccc(OCc3ccccc3)cc2c1C(=O)NCc1ccccc1` [Cpd 098, N-benzyl-5-(benzyloxy)-2-methylbenzofuran-3-carboxamide], the pIC50 is under 4.70. In the case of `Cc1oc2ccc(OCc3ccccc3)cc2c1C(=O)NC1CCCNC1` (centres unmarked) [Cpd 075, 5-(benzyloxy)-2-methyl-N-(piperidin-3-yl)benzofuran-3-carboxamide], the pIC50 was over 6.00.

Compound `CCC(Oc1ccc2oc(C)c(C(=O)N[C@H]3CCNC3)c2c1)c1ccccc1C(F)(F)F` (mixture of isomers) [Cpd 231, rac-2-methyl-N—((R)-pyrrolidin-3-yl)-5-(1-(2-(trifluoromethyl)phenyl)propoxy)benzofuran-3-carboxamide] gave a pIC50 of over 6.00. With `Cc1oc2ccc(OCc3ccccc3)cc2c1C(=O)NC1CCN(C(=O)OC(C)(C)C)CC1` [Cpd 249, tert-butyl 4-(5-(benzyloxy)-2-methylbenzofuran-3-carboxamido)piperidine-1-carboxylate], the pIC50 is 4.70 to 6.00. Take `Cc1oc2ccc(OCc3c(F)cccc3F)cc2c1C(=O)NC1(CO)CCOCC1` [Cpd 218, 5-((2,6-difluorobenzyl)oxy)-N-(4-(hydroxymethyl)tetrahydro-2H-pyran-4-yl)-2-methylbenzo-furan-3-carboxamide]: the pIC50 is over 6.00.
